Reference: patent publication US20200157135A1, “SIDE-CHAIN MODIFIED ERGOSTEROL AND STIGMASTEROL DERIVATIVES AS LIVER X RECEPTOR MODULATORS” (Ospedale San Raffaele srl, priority 2017, published 2020)
“Also recorded” adds a separate entry of the source.

How the values were obtained:
hLXRα = molecular target: T1, hLXRα (Homo sapiens, UniProt Q13133); assay: luciferase assay with GAL-4 chimeric hLXRα receptor in human embryonic kidney 293 cells; assay type: cell-based; conditions: for EC50: GAL4-hLXRα luciferase, HEK293, dose-response 32-1 μM, mean of three-five independent experiments, read-out: LXRα EC50 (μM) ± SD; for Emax: HEK293, 24 h, read-out: LXRα Efficacy (%) ± SD; for LXR isoform selectivity profile: LXRα versus LXRβ, GAL4 luciferase assays
T1 sequence (Q13133 209-447 limits assumed): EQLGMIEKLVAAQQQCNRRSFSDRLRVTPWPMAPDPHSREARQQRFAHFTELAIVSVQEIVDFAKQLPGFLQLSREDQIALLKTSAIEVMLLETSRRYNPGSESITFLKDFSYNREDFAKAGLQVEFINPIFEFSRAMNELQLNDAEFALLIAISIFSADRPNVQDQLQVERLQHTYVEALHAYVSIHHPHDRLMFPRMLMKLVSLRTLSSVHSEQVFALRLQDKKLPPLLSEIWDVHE
Method: (§1) All the synthesized compounds were first tested for their ability to activate LXRs by using luciferase assays with GAL-4 chimeric receptors. These were performed by co-transfecting plasmids encoding hLXRα- and β-binding domains fused to GAL-4, with the respective responsive element conjugated with the luciferase reporter gene into the human embryonic kidney 293 cells.
(§2) Cell Culture and Co-transfection Assays. Human embryonic Kidney 293 cells (American Type Culture Collection) were cultured in Dulbecco's Modified Eagle's medium containing 10% of fetal bovine serum at 37° C. in humidified atmosphere of 5% CO2. HEK293 cells (4×10^4 cells per well) were transiently transfected in 48 well plate with the reporter plasmids pMH100X4-TK-luc (100 ng/well), Renilla (22 ng/well) together with 100 ng/well of pCMX-Gal4-RXR, pCMX-Gal4-PPAR-γ, pCMX-Gal4-PXR, pFA-CMV-FXR pCMX-Gal4-LXR-α or pCMX-Gal4-LXR-β plasmids using X-tremeGENE 9 DNA Transfection Reagent (Roche). Six hours after transfection, the cells were treated with the appropriate compound for 24 hours. Luciferase activities were analyzed by luciferase Dual Reporter Assay Systems (Promega) according to the manufacturer's protocol. GAL4-LXRs, GAL4-PPAR-γ, GAL4-RXR and TK-MHC100-luc plasmids were described in Villablanca et al.49 GAL4-PXR was a kind gift of Dr. Enrique Sainz (The Scripps Research Institute, La Jolla, USA). GAL4-FXR was a kind gift of Dr. Daniel Merk (Goethe-University Frankfurt am Main). The results obtained by luciferase assays and reported in Table 1 are from three to five independent experiments.
(§3) Statistical analysis. Data are expressed as mean±SEM and were analyzed for significance by ANOVA with Dunnet's multiple comparison tests. The analysis was performed with Prism software. Data in Table 1 are expressed as EC50±SD. In particular, the standard deviations were obtained by calculating the mean of the EC50 of each experiment (three to five independent experiments). The efficacy (%) of the compounds was calculated as the percentage of the compound effect, in terms of LXRα or β activation, versus 8 μM of 22R—HC±SD. The analyses were performed with Prism software.

hLXRβ = molecular target: T2, hLXRβ (Homo sapiens, UniProt P55055); assay: luciferase assay with GAL-4 chimeric hLXRβ receptor in human embryonic kidney 293 cells; assay type: cell-based; conditions: for EC50: GAL4-hLXRβ luciferase, HEK293, dose-response 32-1 μM, mean of three-five independent experiments, read-out: LXRβ EC50 (μM) ± SD; for Emax: HEK293, 24 h, read-out: LXRβ Efficacy (%) ± SD, % of compound effect versus 8 μM of 22R-HC
T2 sequence (P55055 222-460 limits assumed): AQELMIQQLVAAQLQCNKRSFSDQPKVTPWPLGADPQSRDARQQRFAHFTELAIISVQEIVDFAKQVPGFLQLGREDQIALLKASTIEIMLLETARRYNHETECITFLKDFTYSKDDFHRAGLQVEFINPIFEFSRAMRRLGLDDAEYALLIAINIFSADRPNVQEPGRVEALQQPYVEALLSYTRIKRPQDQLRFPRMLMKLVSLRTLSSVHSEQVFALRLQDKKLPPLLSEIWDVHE
Method: as §1, §2, §3

ABCA1 [1] = assay: qPCR of ABCA1 expression in PMA-differentiated U937 cells; assay type: cell-based, human; conditions: U937 differentiated with PMA 72 h; 10 μM, 6 hours
Method: (§4) U937 cells differentiated with PMA for 72 hours were treated with T0901317 (10 μM), 22R—HC (3) or with the tested compound (10 μM). […] (n=3/group). *p<0.05, **p<0.01, ***p<0.001.
(§5) LXR agonists induce the expression of target genes, which are involved in cholesterol homeostasis, particularly in the reverse cholesterol transport pathway.43 Indeed, LXR agonists induce the expression of ABCA1 both in macrophages and in many tissues of the periphery such as the intestine.44 Moreover, ABCA1 regulates cholesterol efflux to APOAI acceptors.45 In the liver, LXR activation promotes the biosynthesis of fatty acids, a process also termed as de novo lipogenesis by inducing the expression of the master regulator of hepatic lipogenesis sterol-regulatory element-binding protein 1C (SREBP-1c), as well as several downstream genes in the SREBP-1c pathway, including steroyl CoA desaturase 1 (SCD1) and fatty acid synthase (FASN).43 Therefore, it was investigated, by quantitative PCR (qPCR), the expression of ABCA1, SREBP1c, FASN, and SCD1, by using RNA from monocytic U937 cells (FIG. 3) and from hepatic HepG2 cells (FIG. 4) stimulated with our compounds, the non-steroidal agonist T0901317 or the endogenous ligand 22R—HC (3) as positive controls. […] Then, the induction of genes involved in the lipogenesis using the hepatic cell line HepG2. 43,22 was evaluated. […] Over the time, indeed, substantial efforts have been dedicated to the identification of LXR ligands able to turning on ABC transporter genes, without affecting lipogenic genes levels. This task is still one of the major challenge to the discovery of a clinically useful LXR modulator for atherosclerosis.
(§6) Quantitative Real-Time-PCR. U937 cell line was differentiated in foam macrophages with phorbol 12-myristate 13-acetate (PMA) 10 ng/ml (Sigma) for 72 hours at 37° C. in […] at the concentration of 3×10^6 cells in 10 ml RPMI 10% FBS. At day 3 nuclear receptor ligands were added for 6 hours. HepG2 cells were treated with the ligands as described by Quinet et al.22 Total RNA was purified by TRIZOL (Invitrogen, Carlsbad, Calif., USA). Reverse transcription was performed incubating 2 μg of total RNA 1 hour at 42° C. with MLV-reverse transcriptase (Promega). Quantitative PCR was performed using Sybr Green Master Mix (Applied Biosystems) and real-time PCR (Viia 7 Real Time PCR System, Applied Biosystems). All PCR reactions were done in triplicate. The comparative Ct method was used to quantify transcripts that were normalized for human GAPDH. the following primer pairs were used: […]

SREBP1c [2] = assay: qPCR of SREBP1c expression in PMA-differentiated U937 cells; assay type: cell-based, human; conditions: U937 differentiated with PMA 72 h; 10 μM, 6 hours
Method: as §4, §5, §6

SCD1 = assay: qPCR of SCD1 expression in PMA-differentiated U937 cells; assay type: cell-based, human; conditions: U937 differentiated with PMA 72 h; 10 μM, 6 hours
Method: as §4, §5, §6

SREBP1c [3] = assay: qPCR of SREBP1c expression in HepG2 cells; assay type: cell-based, human; conditions: 10 μM
Method: HepG2 cells were treated with T0901317 (10 μM), 22R—HC (3) (10 μM) or with the tested compound (10 μM). […] (n=3/group). *p<0.05, **p<0.01, ***p<0.001.
LXR agonists induce the expression of target genes, which are involved in cholesterol homeostasis, particularly in the reverse cholesterol transport pathway.43 Indeed, LXR agonists induce the expression of ABCA1 both in macrophages and in many tissues of the periphery such as the intestine.44 Moreover, ABCA1 regulates cholesterol efflux to APOAI acceptors.45 In the liver, LXR activation promotes the biosynthesis of fatty acids, a process also termed as de novo lipogenesis by inducing the expression of the master regulator of hepatic lipogenesis sterol-regulatory element-binding protein 1C (SREBP-1c), as well as several downstream genes in the SREBP-1c pathway, including steroyl CoA desaturase 1 (SCD1) and fatty acid synthase (FASN).43 Therefore, it was investigated, by quantitative PCR (qPCR), the expression of ABCA1, SREBP1c, FASN, and SCD1, by using RNA from monocytic U937 cells (FIG. 3) and from hepatic HepG2 cells (FIG. 4) stimulated with our compounds, the non-steroidal agonist T0901317 or the endogenous ligand 22R—HC (3) as positive controls. […] 43,22 was evaluated. […]
Quantitative Real-Time-PCR. […] The comparative Ct method was used to quantify transcripts that were normalized for human GAPDH. the following primer pairs were used: […]

TNFα = assay: qPCR of TNFα expression in differentiated U937 cells treated with LPS; assay type: cell-based, human; conditions: differentiated U937, 6 hours, 10 μM in combination with LPS (100 ng/ml)
Method: U937 cells differentiated with PMA for 72 hours were treated with LPS (100 ng/ml) in combination with T0901317 (10 μM) or with the title compounds (10 μM). […] (n=3/group). *p<0.05, **p<0.01, ***p<0.001.
as §6

[4] = tested on: murine Lewis lung carcinoma cells (LLC); assay: growth of LLC tumor cells in vitro; assay type: cell-based; conditions: 96 hours, 10 μM
From the text: (§7) We have performed a set of experiments to evaluate whether some LXR modulators, particularly PFM009 (13) and PFM018 (25) influence the growth of the murine Lewis lung carcinoma cells (LLC) in vitro and in vivo.

Abca1 [5] = assay: qPCR of LXR target gene Abca1 in LLC tumor cells; assay type: cell-based, murine
From the text: as §7

LLC tumor = LLC tumor growth in vivo in C57BL/6 mice; conditions: 1×10^6 LLC cells subcutaneously, 30 mg/Kg/day for five consecutive days from day six
Method: Then, we tested whether these compounds could influence LLC tumor growth in vivo. To do that, C57BL/6 mice were challenged with 1×10^6 LLC tumor cells subcutaneously. Six days later, tumor-bearing mice were treated with PFM009 or PFM018 (30 mg/Kg/day) for five consecutive days and then evaluated for tumor growth.

hFXR = assay: luciferase assay GAL4-hFXR in human embryonic kidney 293 cells; assay type: cell-based; conditions: compounds at 10 μM
Method: Human embryonic kidney 293 cells were co-transfected with GAL4-hRXR (A), GAL4-hPPARγ (B), GAL4-hPXR (C) and GAL4-hFXR (D) expression plasmids together with GAL4 responsive element pMHC100X4-TK-luc and Renilla plasmids. Cells were incubated with vehicle (DMSO), PFMs at the concentration of 10 μM, and the nuclear receptor specific ligands 9cis retinoic acid (100 nM) (A), Rosiglitazone (RSG 100 nM) (B), T0901317 (100 nM) (C) and GW4064 (100 nM) (D) for six hours. The values represent mean±S.D. RLA, relative luciferase activity.
The selectivity of our compounds within the nuclear receptor superfamily was also evaluated by luciferase assays using GAL4-RXR, -PPARγ, -PXR and -FXR plasmids.
Cell Culture and Co-transfection Assays. Human embryonic Kidney 293 cells (American Type Culture Collection) were cultured in Dulbecco's Modified Eagle's medium containing 10% of fetal bovine serum at 37° C. in humidified atmosphere of 5% CO2. […] Luciferase activities were analyzed by luciferase Dual Reporter Assay Systems (Promega) according to the manufacturer's protocol. […]

Row | Structure (SMILES) | EC50 (hLXRα) | Emax (hLXRα) | LXR isoform selectivity profile (hLXRα) | EC50 (hLXRβ) | Emax (hLXRβ) | ABCA1 expression (ABCA1 [1]) | SREBP-1c up-regulation (SREBP1c [2]) | SCD1 expression (SCD1) | SREBP-1c up-regulation (SREBP1c [3]) | inhibition of TNFα expression (TNFα) | LLC tumor growth in vitro [4] | expression of the LXR target gene Abca1 (Abca1 [5]) | LLC tumor growth in vivo (LLC tumor) | FXR activation (hFXR) | LXRα Efficacy (%) ± SD (hLXRα; % of compound effect versus 8 μM of 22R-HC) | beta/alfa efficacy ratio (hLXRβ; LXRβ efficacy over LXRα efficacy)
1 | CC[C@@H](C(C)C)[C@H]1O[C@@H]1[C@@H](C)[C@H]1CC[C@H]2[C@@H]3CC=C4C[C@@H](O)CC[C@]4(C)[C@H]3CC[C@]12C [Compound 13, (22R,23R)-22,23-Epoxystigmast-5-ene-3β-ol] | 2.09 ± 0.57 µM | 489 ± 89.1% | non-selective and poorly preferential LXRα agonists; also recorded: non-selective ligands; also recorded: non-selective LXR agonists | 3.79 ± 0.82 µM | 142 ± 16.8% | strong induction of ABCA1 expression | poor activators of SREBP1c and SCD1 | poor activators of SREBP1c and SCD1 | significant up-regulation of SREBP-1c | the most active | not able to alter LLC tumor growth in vitro | induced the expression of the LXR target gene Abca1 | significant control of LLC tumor growth |  |  | 
2 | CC[C@H](C[C@@H](O)[C@@H](C)[C@H]1CC[C@H]2[C@@H]3CC=C4C[C@@H](O)CC[C@]4(C)[C@H]3CC[C@]12C)C(C)C [Compound 20, (22R)-3β-stigmast-5-ene-3,22-diol] |  |  |  |  |  | strong induction of ABCA1 expression | poor activators of SREBP1c and SCD1 | poor activators of SREBP1c and SCD1 |  |  |  |  |  | strong FXR activation |  | 
3 | CC[C@H](C(=O)C[C@@H](C)[C@H]1CC[C@H]2[C@@H]3CC=C4C[C@@H](O)CC[C@]4(C)[C@H]3CC[C@]12C)C(C)C [Compound 25, 3β-Hydroxystigmast-5-ene-23-one] | 14.5 µM | 12.4 ± 4.2% | good selectivity for the LXRβ isoform in terms of EC50; also recorded: LXRβ-selective agonist; also recorded: selective LXRβ agonist | 6.02 ± 1.2 µM | ~50% | strong induction of ABCA1 expression | poor activators of SREBP1c and SCD1 | poor activators of SREBP1c and SCD1 |  | the most active | not able to alter LLC tumor growth in vitro | induced the expression of the LXR target gene Abca1 | significant control of LLC tumor growth |  | lowest efficacy at LXRα | 3.7
